Laboratory results from PMC5065625, “Structure-mechanism-based engineering of chemical regulators targeting distinct pathological factors in Alzheimer's disease” (Nature Communications, 2016).
Structures can show the parent of a compound that is named as a salt.

Legend:
metal-free Aβ40/Aβ42 = metal-free Aβ40/Aβ42 (Homo sapiens, UniProt P05067); parameters: method as in PMID 26575890; details: cited from earlier work
Solubility = assay type: physicochemical; details: water; HCl salt

Sequence of metal-free Aβ40/Aβ42 (P05067 672-711 limits assumed): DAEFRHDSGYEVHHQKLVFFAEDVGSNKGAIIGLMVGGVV

Compound: CN(C)c1ccc(N)cc1 [DMPD, N,N-dimethyl-p-phenylenediamine]
- Interaction with Aβ and redirection of self-assembly (metal-free Aβ40/Aβ42): interact with both metal-free Aβ and metal–Aβ and redirect their self-assembly routes to form off-pathway aggregates

Compound: Nc1ccc(NCc2ccccn2)cc1 [HCl salt of 1, N^1-(pyridin-2-ylmethyl)benzene-1,4-diamine]
- solubility (Solubility): ~800 mg/mL
